Where a name gives a salt, the structure may show the parent alone.
Experiments:
[1] = system: stress-induced ulcer formation; experiment: Inhibitory action on stress-induced ulcer formation; assay type: in vivo, Sprague-Dawley strain male rats; details: oral, rats; for Number of Ulcers/Stomach, 3 mm or larger / Number of Ulcers/Stomach, up to 3 mm: 10 minutes before stress; for Ulcer Index (mean value ± standard deviation): Ulcer Index = a + b/10, Control 6.1 ± 2.3; for inhibition in vivo at 100 mg/kg: Rattus norvegicus, 16 h, stress-induced ulcer, read-out: Percent Inhibition
Method: Action on stress-induced ulcer formation
Sprague-Dawley strain male rats weighing 200-250 g were deprived of food for 24 hours, and then laid down on their backs on a screen and fixed by fastening their limbs with a strand. The fixed rats were submerged in water bath to the depth of ensiform process with their hind legs dipped first. Sixteen hours after the submergence, the rats were brought out from the bath and their stomachs were taken out. After light fixation with a 1% formalin aqueous solution, the stomach of each animal was cut open along their greater curvature and gastric mucosa was observed through a dissecting microscope. The ulcer was evaluated on an ulcer index calculated from the following equation: […]
wherein a is the number of big ulcers more than 3 mm in diameter and b is the number of small ulcers up to 3 mm in diameter.
A test compound was orally administered as a suspension in a 1% gum arabic aqueous solution, 10 minutes before exposure to stress.

[2] = system: pylorus ligature ulcer formation; experiment: Protective action on pylorus ligature ulcer formation; assay type: in vivo, Sprague-Dawley strain male rats; details: in the duodenum, rats; for Percent Death Rate / Percent Perforating Ulcers: 16 hours after pylorus ligature
Method: Protective Action on pylorus ligature ulcer formation
The pylorus of Sprague-Dawley strain male rats weighing 150-200 g that had abstained from food, but not water for 48 hours was ligatured under ether anethsia. Each rat was allowed to stand individually in a cage for 16 hours without food and water. At the end of this term, the rats were sacrificed by an overdose of diethyl ether. The stomach was taken out of each animal and the gastric mucosa was observed by the use of a dissecting microscope.
Ulcers observed in the gastric mucosa were evaluated on a scale of from 0 to 5 defined as follows.
0: No lesion was observed.
1: Hemorrhage and/or erosion were observed.
2: One to five small ulcers less than 3 mm in diameter were observed.
3: Six or more small ulcers and/or a large ulcer more than 3 mm in diameter were observed.
4: Two or more large ulcers were observed.
5: At least one perforating ulcer was observed.
A test compound was administered as an aqueous solution in an equivalent molar of hydrochloric acid in the duodenum immediately after the pylorus ligature.

Acute toxicity in mice = details: mouse, in vivo
Method: Acute toxicity of 1-(3'-dimethylaminopropoxy)-2,4-bis(2"-methylbenzamido)-benzene, 1-(3'-dimethylaminopropoxy)-2,4-bis(3"-methylbenzamido)-benzene, 1-[N-(3-dimethylaminopropyl)-carbamoyl]-2,4-bis(2"-methylbenzamido)-benzene and 1-[N-(3'-dimethylaminopropyl)-carbamoyl]-2,4-bis(3"-methylbenzamido)-benzene were observed by the use of ddY strain male mice (5 weeks old) which were administered orally or intravenously with one of the compounds.
In the case of intravenous administration, the hydrochloride of test compound was dissolved in a physiological saline solution and administered by injecting into a vein of the tail. LD50 was determined by the "Up and Down" method.
When the administration was effected orally, the test compound was suspended in a 1% gum arabic aqueous solution and the suspension was administered orally by gavage. LD50 was determined by the Litchfield and Wilcoxon method or Miller and Tainter method based on death rate of each group of […] 10 days after the administration of the compound.

[3] = iv, hydrochloride in physiological saline, Up and Down Method
[4] = oral, 1% gum arabic suspension, 10 days, Litchfield and Wilcoxon Method

CCN(CC)CCNC(=O)c1cc(NC(=O)c2ccccc2OC)cc(NC(=O)c2ccccc2OC)c1 [1-[N-(2'-diethylaminoethyl)-carbamoyl]-3,5-bis(2"-methoxybenzamido)-benzene hydrochloride]
Number of Ulcers/Stomach, 3 mm or larger ([1]; 100 mg/kg): 3.0 | Number of Ulcers/Stomach, up to 3 mm ([1]; 100 mg/kg): 13 | Ulcer Index (mean value ± standard deviation) ([1]; 100 mg/kg): 4.3 ± 2.2 | inhibition in vivo at 100 mg/kg ([1]; 100 mg/kg): 33%

Cc1cccc(C(=O)Nc2ccc(OCCCN(C)C)c(NC(=O)c3cccc(C)c3)c2)c1 [1-(3'-dimethylaminopropoxy)-2,4-bis(3"-methylbenzamido)-benzene]
Percent Death Rate ([2]; 50 mg/kg): 33% | Percent Perforating Ulcers ([2]; 50 mg/kg): 50% | Percent Death Rate ([2]; 100 mg/kg): 0% | Percent Perforating Ulcers ([2]; 100 mg/kg): 0% | Percent Death Rate ([2]; 200 mg/kg): 0% | Percent Perforating Ulcers ([2]; 200 mg/kg): 0% | Percent Inhibition ([2]; 200 mg/kg, 16 hours, ulcer index vs control): 75% | Number of Ulcers/Stomach, up to 3 mm ([1]; 30 mg/kg): 21 | Number of Ulcers/Stomach, up to 3 mm ([1]; 45 mg/kg): 9 | Number of Ulcers/Stomach, up to 3 mm ([1]; 67 mg/kg): 7 | Number of Ulcers/Stomach, up to 3 mm ([1]; 100 mg/kg): 11 | LD50 (Acute toxicity in mice; [3]): 38 mg/kg | LD50 (Acute toxicity in mice; [4]): 4700 mg/kg

Cc1ccccc1C(=O)Nc1ccc(C(=O)NCCCN(C)C)c(NC(=O)c2ccccc2C)c1 [1-[N-(3'-dimethylaminopropyl)-carbamoyl]-2,4-bis(2"-methylbenzamido)-benzene]
Percent Death Rate ([2]; 200 mg/kg): 0% | Percent Perforating Ulcers ([2]; 200 mg/kg): 0% | Number of Ulcers/Stomach, up to 3 mm ([1]; 100 mg/kg): 23 | LD50 (Acute toxicity in mice; [3]): 111 mg/kg

CCN(CC)CCCNC(=O)c1ccc(NC(=O)c2ccccc2OC)cc1NC(=O)c1ccccc1OC [1-[N-(3'-diethylaminopropyl)-carbamoyl]-2,4-bis(2"-methoxybenzamido)-benzene]
Number of Ulcers/Stomach, 3 mm or larger ([1]; 100 mg/kg): 0 | Number of Ulcers/Stomach, up to 3 mm ([1]; 100 mg/kg): 11 | Ulcer Index (mean value ± standard deviation) ([1]; 100 mg/kg): 1.3 ± 0.5 | inhibition in vivo at 100 mg/kg ([1]; 100 mg/kg): 80%

CCN(CC)CCNC(=O)c1ccc(NC(=O)c2cccc(C)c2)cc1NC(=O)c1cccc(C)c1 [1-[N-(2'-diethylaminoethyl)-carbamoyl]-2,4-bis(3"-methylbenzamido)-benzene]
Number of Ulcers/Stomach, 3 mm or larger ([1]; 100 mg/kg): 1.3 | Number of Ulcers/Stomach, up to 3 mm ([1]; 100 mg/kg): 27 | Ulcer Index (mean value ± standard deviation) ([1]; 100 mg/kg): 4.0 ± 2.6 | inhibition in vivo at 100 mg/kg ([1]; 100 mg/kg): 46%

CCN(CC)CCCOc1ccc(NC(=O)c2ccccc2C)cc1NC(=O)c1ccccc1C [1-(3'-diethylaminopropoxy)-2,4-bis(2"-methylbenzamido)-benzene]
Number of Ulcers/Stomach, 3 mm or larger ([1]; 100 mg/kg): 0 | Number of Ulcers/Stomach, up to 3 mm ([1]; 100 mg/kg): 6 | Ulcer Index (mean value ± standard deviation) ([1]; 100 mg/kg): 0.5 ± 1.0 | inhibition in vivo at 100 mg/kg ([1]; 100 mg/kg): 92%

Cc1ccccc1C(=O)Nc1ccc(OCCCCN(C)C)c(NC(=O)c2ccccc2C)c1 [1-(4'-dimethylaminobutoxy)-2,4-bis(2"-methylbenzamido)-benzene]
Number of Ulcers/Stomach, 3 mm or larger ([1]; 100 mg/kg): 0.2 | Number of Ulcers/Stomach, up to 3 mm ([1]; 100 mg/kg): 6 | Ulcer Index (mean value ± standard deviation) ([1]; 100 mg/kg): 1.0 ± 0.6 | inhibition in vivo at 100 mg/kg ([1]; 100 mg/kg): 85%

Cc1cccc(C(=O)Nc2ccc(OCCCCN(C)C)c(NC(=O)c3cccc(C)c3)c2)c1 [1-(4'-dimethylaminobutoxy)-2,4-bis(3"-methylbenzamido)-benzene]
Number of Ulcers/Stomach, 3 mm or larger ([1]; 100 mg/kg): 0.5 | Number of Ulcers/Stomach, up to 3 mm ([1]; 100 mg/kg): 8 | Ulcer Index (mean value ± standard deviation) ([1]; 100 mg/kg): 1.2 ± 1.6 | inhibition in vivo at 100 mg/kg ([1]; 100 mg/kg): 82%

Cc1ccccc1C(=O)Nc1ccc(OCCCN(C)C)c(NC(=O)c2ccccc2C)c1 [1-(3'-dimethylaminopropoxy)-2,4-bis(2"-methylbenzamido)-benzene]
Percent Death Rate ([2]; 50 mg/kg): 20% | Percent Perforating Ulcers ([2]; 50 mg/kg): 20% | Percent Death Rate ([2]; 100 mg/kg): 0% | Percent Perforating Ulcers ([2]; 100 mg/kg): 0% | Percent Death Rate ([2]; 200 mg/kg): 0% | Percent Perforating Ulcers ([2]; 200 mg/kg): 0% | Number of Ulcers/Stomach, up to 3 mm ([1]; 30 mg/kg): 23 | Number of Ulcers/Stomach, up to 3 mm ([1]; 45 mg/kg): 17 | Number of Ulcers/Stomach, up to 3 mm ([1]; 67 mg/kg): 9 | Number of Ulcers/Stomach, up to 3 mm ([1]; 100 mg/kg): 4 | LD50 (Acute toxicity in mice; [3]): 42 mg/kg | LD50 (Acute toxicity in mice; [4]): 2520 mg/kg

CCN(CC)CCCNC(=O)c1ccc(NC(=O)c2cccc(C)c2)cc1NC(=O)c1cccc(C)c1 [1-[N(3'-diethylaminopropyl)-carbamoyl]-2,4-bis(3"-methylbenzamido)-benzene]
Number of Ulcers/Stomach, 3 mm or larger ([1]; 100 mg/kg): 0 | Number of Ulcers/Stomach, up to 3 mm ([1]; 100 mg/kg): 12 | Ulcer Index (mean value ± standard deviation) ([1]; 100 mg/kg): 1.0 ± 0.6 | inhibition in vivo at 100 mg/kg ([1]; 100 mg/kg): 85%

CCN(CC)CCNC(=O)c1ccc(NC(=O)c2ccc(C)cc2)cc1NC(=O)c1ccc(C)cc1 [1-[N-(2'-diethylaminoethyl)-carbamoyl]-2,4-bis(4"-methylbenzamido)-benzene]
Number of Ulcers/Stomach, 3 mm or larger ([1]; 100 mg/kg): 1.4 | Number of Ulcers/Stomach, up to 3 mm ([1]; 100 mg/kg): 26 | Ulcer Index (mean value ± standard deviation) ([1]; 100 mg/kg): 4.0 ± 1.4 | inhibition in vivo at 100 mg/kg ([1]; 100 mg/kg): 40%

Cc1cccc(C(=O)Nc2ccc(C(=O)NCCCN(C)C)c(NC(=O)c3cccc(C)c3)c2)c1 [1-[N-(3'-dimethylaminopropyl)-carbamoyl]-2,4-bis(3"-methylbenzamido)-benzene]
Percent Death Rate ([2]; 200 mg/kg): 0% | Percent Perforating Ulcers ([2]; 200 mg/kg): 0% | Number of Ulcers/Stomach, up to 3 mm ([1]; 100 mg/kg): 17 | LD50 (Acute toxicity in mice; [3]): 88 mg/kg | LD50 (Acute toxicity in mice; oral, 1% gum arabic suspension, 10 days, Miller and Tainter Method): 5100 mg/kg

CCN(CC)CCNC(=O)c1ccc(NC(=O)c2ccccc2OC)cc1NC(=O)c1ccccc1OC [1-[N-(2'-diethylaminoethyl)-carbamoyl]-2,4-bis(2"-methoxybenzamido)-benzene hydrochloride]
Number of Ulcers/Stomach, 3 mm or larger ([1]; 100 mg/kg): 1.1 | Number of Ulcers/Stomach, up to 3 mm ([1]; 100 mg/kg): 12 | Ulcer Index (mean value ± standard deviation) ([1]; 100 mg/kg): 3.8 ± 2.3 | inhibition in vivo at 100 mg/kg ([1]; 100 mg/kg): 40%

CCN(CC)CCCCOc1ccc(NC(=O)c2ccccc2OC)cc1NC(=O)c1ccccc1OC [1-(4'-diethylaminobutoxy)-2,4-bis(2"methoxybenzamido)-benzene]
Number of Ulcers/Stomach, 3 mm or larger ([1]; 100 mg/kg): 0.8 | Number of Ulcers/Stomach, up to 3 mm ([1]; 100 mg/kg): 11 | Ulcer Index (mean value ± standard deviation) ([1]; 100 mg/kg): 1.8 ± 1.5 | inhibition in vivo at 100 mg/kg ([1]; 100 mg/kg): 71%

CCN(CC)CCCOc1ccc(NC(=O)c2ccc(C)cc2)cc1NC(=O)c1ccc(C)cc1 [1-(3'-diethylaminopropoxy)-2,4-bis(4"-methylbenzamido)-benzene]
Number of Ulcers/Stomach, 3 mm or larger ([1]; 100 mg/kg): 1.3 | Number of Ulcers/Stomach, up to 3 mm ([1]; 100 mg/kg): 17 | Ulcer Index (mean value ± standard deviation) ([1]; 100 mg/kg): 3.0 ± 0.8 | inhibition in vivo at 100 mg/kg ([1]; 100 mg/kg): 52%

CCN(CC)CCCOc1ccc(NC(=O)c2ccccc2OC)cc1NC(=O)c1ccccc1OC [1-(3'-diethylaminopropoxy)-2,4-bis(2"-methoxybenzamido)-benzene]
Number of Ulcers/Stomach, 3 mm or larger ([1]; 100 mg/kg): 0.8 | Number of Ulcers/Stomach, up to 3 mm ([1]; 100 mg/kg): 8 | Ulcer Index (mean value ± standard deviation) ([1]; 100 mg/kg): 1.5 ± 2.4 | inhibition in vivo at 100 mg/kg ([1]; 100 mg/kg): 76%

CCN(CC)CCCOc1ccc(NC(=O)c2cccc(C)c2)cc1NC(=O)c1cccc(C)c1 [1-(3'-diethylaminopropoxy)-2,4-bis(3"-methylbenzamido)-benzene]
Number of Ulcers/Stomach, 3 mm or larger ([1]; 100 mg/kg): 0.3 | Number of Ulcers/Stomach, up to 3 mm ([1]; 100 mg/kg): 6 | Ulcer Index (mean value ± standard deviation) ([1]; 100 mg/kg): 0.8 ± 1.0 | inhibition in vivo at 100 mg/kg ([1]; 100 mg/kg): 87%

Cc1ccc(C(=O)Nc2ccc(C(=O)NCCCN(C)C)c(NC(=O)c3ccc(C)cc3)c2)cc1 [1-[N-(3'-dimethylaminopropyl)-carbamoyl]-2,4-bis(4"-methylbenzamido)-benzene]
Number of Ulcers/Stomach, 3 mm or larger ([1]; 100 mg/kg): 1.0 | Number of Ulcers/Stomach, up to 3 mm ([1]; 100 mg/kg): 19 | Ulcer Index (mean value ± standard deviation) ([1]; 100 mg/kg): 3.0 ± 1.4 | inhibition in vivo at 100 mg/kg ([1]; 100 mg/kg): 60%

CCN(CC)CCNC(=O)c1ccc(NC(=O)c2ccccc2C)cc1NC(=O)c1ccccc1C [1-[N-(2'-diethylaminoethyl)-carbamoyl]-2,4-bis(2"-methylbenzamido)-benzene]
Number of Ulcers/Stomach, 3 mm or larger ([1]; 100 mg/kg): 1.2 | Number of Ulcers/Stomach, up to 3 mm ([1]; 100 mg/kg): 29 | Ulcer Index (mean value ± standard deviation) ([1]; 100 mg/kg): 4.2 ± 0.4 | inhibition in vivo at 100 mg/kg ([1]; 100 mg/kg): 38%

COc1ccccc1C(=O)Nc1ccc(OCCCN(C)C)c(NC(=O)c2ccccc2OC)c1 [1-(3'-dimethylaminopropoxy)-2,4-bis(2"-methoxybenzamido)-benzene trihydrochloride]
Number of Ulcers/Stomach, 3 mm or larger ([1]; 100 mg/kg): 0.5 | Number of Ulcers/Stomach, up to 3 mm ([1]; 100 mg/kg): 13 | Ulcer Index (mean value ± standard deviation) ([1]; 100 mg/kg): 1.8 ± 2.4 | inhibition in vivo at 100 mg/kg ([1]; 100 mg/kg): 71%
